The test system of series [1] is Chloroquine-resistant malaria plasmodium Plasmodium chabaudi (AS strain: chloroquine-resistant (3CQ)). The series is described as follows: Test 1: resistance overcoming effect, in vivo test with chloroquine-resistant mouse malaria strain. To be noted: ICR male mice, days 0-3, counted on 5th day; for number of PRBCs per 10,000 red blood cells, Chloroquine 0 mg: test compound 50 mg/kg i.p. + chloroquine 0 mg/kg i.p.; for number of PRBCs per 10,000 red blood cells, Chloroquine 3 mg: test compound 50 mg/kg i.p. + chloroquine 3 mg/kg i.p.; for number of PRBCs per 10,000 red blood cells, Chloroquine 3 mg / number of PRBCs per 10,000 red blood cells, Chloroquine 2 mg: Control = chloroquine only; for number of PRBCs per 10,000 red blood cells, Chloroquine 2 mg: test compound 50 mg/kg i.p. + chloroquine 2 mg/kg i.p. The protocol:
With respect to Compounds 1 to 7, these invention compounds were tested for their resistance overcoming effect in an in vivo test making use of a chloroquine-resistant mouse malaria strain. The test was conducted following the following procedure.
Chloroquine-resistant malaria plasmodium Plasmodlium chabaudi (AS strain: chloroquine-resistant (3CQ)); and
Mice: ICR male mice of 4-5 weeks old (20 to 25 g)
(§1) • 1) Preparation of the compounds: Each test compound was dissolved beforehand in 1/10 volume of DMSO such that the dose of the compound to each mouse per administration would become a final concentration of 50 mg/kg/0.2 mL. The resulting solution was diluted with 0.85% physiological saline to provide a 10% DMSO suspension. • 2) Inoculation with the chloroquine-resistant malaria plasmodium, Plasmodium chabaudi (AS strain: chloroquine-resistant (3CQ): Parasitized red blood cells (PRBCs) (5×10^6 (the 6th power of 10) cells/0.2 mL) were also prepared with 0.85% physiological saline, and inoculated through the caudal vein of each mouse with a 26×½-gauge tuberculin needle. • 3) Administration of the compounds and chloroquine: Two hours after the inoculation with the plasmodium, each test compound (50 mg/kg/0.2 mL) was intraperitoneally administered with 21×½-gauge needles to three groups of mice per compound. Chloroquine solutions of three concentrations, which had been prepared with 0.85% physiological saline to give final concentrations of 0 mg/kg/0.1 mL, 2 mg/kg/0.1 mL and 3 mg/kg/0.1 mL, respectively, were then also administered intraperitoneally with 26×½-gauge tuberculin needles to the three groups of mice which had been administered with the compound. To three control groups, the three chloroquine solutions were only administered, respectively. The compound and chloroquine were administered four times in total, that is, on the 0th, 1st, 2nd and 3rd days after the inoculation with the plasmodium. • 4) Determination of effect: Every day after the inoculation with the plasmodium, the tail of each mouse was cut to a minimum at the tip thereof with scissors to cause bleeding, and a Giemsa staining specimen smeared with a thin film of the blood was prepared. On the 5th day, the number of PRBCs per 10,000 red blood cells was counted, and based on a comparison of the PRBC number with the corresponding number of the group administered only with chloroquine, the chloroquine resistance overcoming effect of the test compound was determined.

Series [2] shares this test system. The series is described as follows: Test 2: resistance overcoming effect of Compound 8, as Test 1 but determined on the fourth day. The series is classed as in vivo. To be noted: for number of PRBCs per 10,000 red blood cells, Chloroquine 2 mg: test compound 50 mg/kg i.p. + chloroquine 2 mg/kg i.p.; for number of PRBCs per 10,000 red blood cells, Chloroquine 2 mg / number of PRBCs per 10,000 red blood cells, Chloroquine 3 mg: Control = chloroquine only; for number of PRBCs per 10,000 red blood cells, Chloroquine 3 mg: test compound 50 mg/kg i.p. + chloroquine 3 mg/kg i.p. The protocol:
as §1
Resistance overcoming effect of Compound 8 was tested in a similar manner as in Test 1. The time of determination of the effect was set on the fourth day.

Setting [3] is: ICR male mice, days 0-3, determined on fourth day.

On to `OCC#CCN1CCN(C2c3ccccc3CCc3ccccc32)CC1`, for which the melting point – broadly, the temperature of the solid-liquid transition – was found to be 129 °C.

As to `C=CCCC(O)CN1CCN(C2c3ccccc3CCc3ccccc32)CC1` (centres unmarked) [Compound 3, 1-Dibenzosuberanyl-4-(2-hydroxy-5-hexenyl)-piperazine], in series [1], the “number of PRBCs per 10,000 red blood cells, Chloroquine 0 mg” value was 4500 per 10,000 red blood cells and the “number of PRBCs per 10,000 red blood cells, Chloroquine 3 mg” value is 292 per 10,000 red blood cells.

For the compound `C=CC(CO)N1CCN(C2c3ccccc3CCc3ccccc32)CC1` (centres unmarked) [Compound 5, 1-Dibenzosuberanyl-4-(1-hydroxybutan-3-en-2-yl)piperazine], the melting point amounted to 123 °C. Moreover, the “number of PRBCs per 10,000 red blood cells, Chloroquine 3 mg” value in series [1] is given as 0 per 10,000 red blood cells.

Turning to `CCCCCCCCC(O)CN1CCN(C2c3ccccc3CCc3ccccc32)CC1` (centres unmarked) [Compound 8, 1-Dibenzosuberanyl-4-(2-hydroxydecanyl)piperazine], the “number of PRBCs per 10,000 red blood cells, Chloroquine 0 mg” value in series [2] (ICR male mice, test compound 50 mg/kg i.p. + chloroquine 0 mg/kg i.p., days 0-3, determined on fourth day) is 7475 per 10,000 red blood cells. In series [2] (setting [3]), the “number of PRBCs per 10,000 red blood cells, Chloroquine 2 mg” value is recorded as 4875 per 10,000 red blood cells and the “number of PRBCs per 10,000 red blood cells, Chloroquine 3 mg” value is 3025 per 10,000 red blood cells. In series [2] (conclusion from Table 2), the “chloroquine resistance overcoming effect (in words)” value was “overcoming of chloroquine resistance”.

Regarding `C=CCCCCC(O)CN1CCN(C2c3ccccc3CCc3ccccc32)CC1` (centres unmarked) [Compound 2, 1-Dibenzosuberanyl-4-(2-hydroxy-7-octenyl)-piperazine], in series [1], the “number of PRBCs per 10,000 red blood cells, Chloroquine 0 mg” value was 8450 per 10,000 red blood cells; the “number of PRBCs per 10,000 red blood cells, Chloroquine 2 mg” value is reported as 0 per 10,000 red blood cells; the “number of PRBCs per 10,000 red blood cells, Chloroquine 3 mg” value is given as 0 per 10,000 red blood cells.

For `C=CC(O)CN1CCN(C2c3ccccc3CCc3ccccc32)CC1` (centres unmarked) [Compound 4, 1-Dibenzosuberanyl-4-(2-hydroxy-3-butenyl)-piperazine], the melting point stood at 93 °C. For the same compound, in series [1], the “number of PRBCs per 10,000 red blood cells, Chloroquine 0 mg” value is 8000 per 10,000 red blood cells; the “number of PRBCs per 10,000 red blood cells, Chloroquine 2 mg” value was 430 per 10,000 red blood cells; the “number of PRBCs per 10,000 red blood cells, Chloroquine 3 mg” value is recorded as 0 per 10,000 red blood cells.

On to `CCN(CC)CCCC(C)Nc1ccnc2cc(Cl)ccc12` (centres unmarked) [Control, chloroquine, reference compound], for which, in series [1], the “number of PRBCs per 10,000 red blood cells, Chloroquine 2 mg” value is on record as 4900 per 10,000 red blood cells and the “number of PRBCs per 10,000 red blood cells, Chloroquine 3 mg” value is given as 3750 per 10,000 red blood cells. In series [2] (setting [3]), the “number of PRBCs per 10,000 red blood cells, Chloroquine 2 mg” value is recorded as 4525 per 10,000 red blood cells and the “number of PRBCs per 10,000 red blood cells, Chloroquine 3 mg” value is given as 3600 per 10,000 red blood cells.

With `C=CCCCCCCC(O)CN1CCN(C2c3ccccc3CCc3ccccc32)CC1` (centres unmarked) [Compound 1, 1-Dibenzosuberanyl-4-(2-hydroxydecan-9-en-1-yl)piperazine], in series [1], the “number of PRBCs per 10,000 red blood cells, Chloroquine 0 mg” value was 4250 per 10,000 red blood cells; the “number of PRBCs per 10,000 red blood cells, Chloroquine 2 mg” value is given as 3100 per 10,000 red blood cells; the “number of PRBCs per 10,000 red blood cells, Chloroquine 3 mg” value is given as 280 per 10,000 red blood cells.

The values above are taken from patent US6881841B2, “Dibenzosuberanyl piperazine derivatives and drug-resistance overcoming agents containing the derivatives” (priority 2000, dated 2005).
